According to patent US20070078620A1, “Methods and kits for delivering pharmaceutical agents into the coronary vascular adventitia” (Mercator MedSystems Inc., priority 2002, published 2007):

Columns and labels:
[1] = two injections of 0.5 mL 5% silver nitrate into each iliac artery; hematoxylin-eosin stained sections
From the text: The animal was sacrificed according to approved protocol following the last injection. The arteries were removed and placed in 10% formalin without perfusion. 2 mm segments were embedded in paraffin, sectioned, and hematoxylin-eosin stained.

[2] = Distribution of a lipophilic compound (tacrolimus) after periadventitial delivery to coronary arteries, LC/MS of tissue; type: in vivo, swine; settings: for concentration at 48 h: swine, in vivo
Experimental: Distribution of a lipophilic compound (tacrolimus): Eight swine underwent angiography. […] The two remaining arteries served as untreated controls. An untreated heart was used as a negative control. At 48 hours arteries were dissected from the musculature and perivascular fat, cut into 5 mm sections and analyzed by Liquid Chromatography/Mass Spectrometry against tacrolimus calibration standards containing homogenized untreated porcine heart tissue.

Compound	staining: site of delivery and diffusion [1]	persistence of drug in the artery ([2]; 48 hours after injection, full length of the artery)	subjects with distribution to the entire coronary tree ([2]; periadventitial delivery, 48 hours)	concentration at 48 h ([2]; mean concentration in the remaining segments) [ng/g]	concentration at 48 h ([2]; mean concentration within 1 cm of known injection sites) [ng/g]	concentration at 48 h ([2]; mean level of tacrolimus in confirmed injected arteries) [ng/g]	concentration at 48 h ([2]; mean level of tacrolimus in uninjected arteries of treated hearts) [ng/g]
O=[N+]([O-])[O-].[Ag+] [Silver Nitrate]	delivery outside the external elastic lamina of the vessels and diffusion around the circumference						
C=CC[C@@H]1/C=C(\C)C[C@H](C)C[C@H](OC)[C@H]2O[C@@](O)(C(=O)C(=O)N3CCCC[C@H]3C(=O)O[C@H](/C(C)=C/[C@@H]3CC[C@@H](O)[C@H](OC)C3)[C@H](C)[C@@H](O)CC1=O)[C@H](C)C[C@@H]2OC [tacrolimus]		detectable	8/8	26	64	55	27
